Consider three compounds from patent publication US6969732B2, “Propylisopropyl acetic acid and propylisopropyl acetamide stereoisomers, a method for their synthesis and pharmaceutical compositions containing them” (Yissum Research Development Company of the Hebrew …, priority 1999, dated 2005).

Data set [1] in a line: Pharmacokinetic studies in mongrel dogs, intravenous injection. The class given is in vivo. The settings on record: for clearance / MRT / half-life / Vd: mongrel, dog, plasma; for clearance: read-out: CL (clearance) (converted); for MRT: read-out: MRT (Mean Residence Time); for half-life: read-out: t½ (converted); for Vd: iv. As for the experimental part:
Pharmacokinetic experiments were carried out on six mongrel dogs weighing 18-25 kg. Dogs were housed in an animal farm and were brought to the lab repeatedly every two-three weeks for crossover experiments after an overnight fast. Each dog was inserted with a urine (Levin's tube, Pennine Healthcare, Derby, UK) and two venous (20G/32 mm Venflon 2, Ohmeda, Helsingborg, Sweden) catheters located on different legs. Dogs were fed with commercial dog food four hours after drug injection, and had free access to water during the whole experiment.
Each dog was intravenously injected with […] (10 mg/kg) of each enantiomer separately or […] of the racemate, dissolved in 2 ml of 96% ethyl alcohol. Venous blood samples (6 ml) were withdrawn via an indwelling catheter from the other leg than used for injection, and transferred into heparinized tubes. The blood samples were centrifuged at 3000 g for 10 minutes, plasma was then separated and stored at […] until analyzed. Blood collection commenced at 5 minutes, and continued up to 12 hours after injection. Urine samples were collected in 1-2 hour intervals beginning at 1 hour and up to 12 hours after injection. The urine volume was recorded and an aliquot was stored at […] until analyzed.
Assay of plasma samples: to test tubes containing 2 μg of the internal standard (diisopropyl acetamide), 0.5 ml of plasma (thawed at room temperature) and 5 ml of tert-butyl methyl ether (TBME) was added. The test tubes were vigorously vortexed for 30 sec and centrifuged at 3000 g for 10 minutes. The organic phase was separated and dried under reduced pressure using a vortex evaporator. Samples were then reconstituted with 150 μl of chloroform and dried under reduced pressure without vortexing. The sample was again reconstituted with 30 μl of chloroform, of which 2 μl were injected into the GC apparatus.
The column used for the chromatographic analysis of PID enantiomers was a Mosandl-methyl capillary column (10 m, 0.25 mm, 0.25 μm) coated with: Heptakis (2,3-di-O-methyl-6-O-tert-butyldimethylsilyl)-β-cyclodextrin as the stationary phase and nitrogen as carrier gas (takeo carbohydr res). Column head pressure was set at 50 KPa, split ratio 1:30, oven temperature 120° C., injector temperature 250° C. and detector temperature 250° C.

Another data set relates to anaesthetized rats. Nature of the data set: Dural plasma protein (BSA) extravasation evoked by unilateral trigeminal ganglion stimulation. The settings on record: FIG. 7. It counts as in vivo. The text has this:
The animal model used in this study is the one developed by Moskowitz et al. (F. M. Cutrer, V. Limmroth and M. A. Moskowitz: Possible mechanisms of valproate in migraine prophylaxis, Cephalalgia 17:93-100 (1997)). Moskowitz et. al. examined the plasma protein extravasation following electrical trigeminal ganglion stimulation or intravenous administration of substance P. It was concluded that in this model valproic acid blocks plasma extravasation in the meninges through GABAA-mediated postjunctional receptors probably within the meninges. […] Thus, agonists and modulators at the GABAA receptor may become useful for the development of selective drugs for migraine and cluster headache (W. S. Lee et. al.: Peripheral GABAA receptor mediated effects of sodium valproate on durnal plasma protein extravasation to substance P and trigeminal stimulation, Toward Migraine 2000, F. C. Rose Ed. Elsevier, Amsterdam, 1996, pp.289-319).
We tested the effects of PID on dural plasma protein (Bovine Serum Albumine—BSA) extravasation evoked by unilateral trigeminal gangelion stimulation in anaesthetized rats.

The mark [2] stands for this setting: enantiomer given in a racemic mixture, 20 mg/kg iv.
The mark [3] stands for this setting: given as individual enantiomers, 10 mg/kg iv.
[4] abbreviates: 10 mg/kg, given as individual enantiomers, 10 mg/kg iv, read-out: Vss.
Setting [5] is: 10 mg/kg, given as individual enantiomers, 10 mg/kg iv, read-out: Vβ (volume of distribution).
Setting [6] is: 20 mg/kg, enantiomer given in a racemic mixture, 20 mg/kg iv, read-out: Vss.
The mark [7] stands for this setting: ratio (S)-PID to (R)-PID, individual enantiomers, 10 mg/kg iv.
Where [8] appears, read: ratio (S)-PID to (R)-PID, racemic mixture, 20 mg/kg iv.

Read-outs that look alike come from different tables or passages of the source. Marks after values point to notes of the source that are not given here.

On to `CCC[C@@H](C(N)=O)C(C)C` [(R)-PID, (R)-propylisopropyl acetamide], for which, in data set [1] (setting [2]), the “E (liver extraction ratio)” value was 12.5 ± 4.0%; the Vb is reported as 10.2 ± 0.9 L; the “fe (fraction excreted unchanged in the urine)” value came to 0.60 ± 0.45%; the clearance (as a rule, the rate of elimination divided by the concentration) was 100 mL/min. Also, in data set [1] (setting [2]), the MRT (commonly a mean duration of stay, worked out from the concentration-time curve) is 2.83 ± 0.6 h and the half-life was 1.25 ± 0.3 h. Moreover, in data set [1] (setting [3]), the “E (liver extraction ratio)” value came out at 15.0 ± 4.6%, the “fe (fraction excreted unchanged in the urine)” value is listed as 0.50 ± 0.4%, the clearance is 113 mL/min and the MRT stood at 2.57 ± 0.5 h. In data set [1] (setting [3]), the half-life was 1.37 ± 0.2 h. Also, in data set [1] (iv administration), the “clearance compared with (2S)-PID” value is on record as “lower clearance” and the “half-life compared with (2S)-PID” value is “longer half-life”. Further, the Vd in data set [1] (setting [4]) was determined as 16 ± 1.2 L. The Vd in data set [1] (setting [5]) was found to be 13.1 ± 2.2 L. The Vd in data set [1] (setting [6]) came out at 15.7 ± 1.5 L.
Turning to `CCC[C@H](C(N)=O)C(C)C` [(S)-PID, (S)-propylisopropyl acetamide], in data set [1] (setting [2]), the “E (liver extraction ratio)” value is listed as 12.1 ± 4.1%, the Vb was found to be 10.4 ± 1.4 L, the “fe (fraction excreted unchanged in the urine)” value came to 0.66 ± 0.46% and the clearance is 100 mL/min. Besides, in data set [1] (setting [2]), the MRT came to 2.87 ± 0.7 h and the half-life was 1.27 ± 0.3 h. In data set [1] (setting [3]), the “E (liver extraction ratio)” value was 23.7 ± 3.5%, the “fe (fraction excreted unchanged in the urine)” value turned out to be 0.40 ± 0.4%, the clearance is 188 mL/min and the MRT is 1.83 ± 0.3 h. The half-life in data set [1] (setting [3]) is 1.04 ± 0.1 h. Further, in data set [1] (setting [4]), the Vd is 19.1 ± 2.7 L. The Vd in data set [1] (setting [5]) worked out at 17 ± 2.9 L. Besides, in data set [1] (setting [6]), the Vd is 15.7 ± 0.9 L. For the same compound, in data set [1] (setting [7]), the “E S/R” value is listed as 1.58*, the “Vβ S/R” value amounted to 1.29 and the “fe S/R” value is reported as 0.78*. Besides, in data set [1] (setting [8]), the “E S/R” value is given as 1.0, the “Vb S/R” value turned out to be 1.0 and the “fe S/R” value was 1.1.
Turning to `CCCC(C(N)=O)C(C)C` (stereo not drawn) [PID, propylisopropyl acetamide], the “effect on dural plasma protein extravasation” value with anaesthetized rats is reported as “has inhibitory effects on the dural plasma protein extravasation”. Also, the stereospecificity of kinetics result in data set [1] (enantiomers given individually, FIG. 4) is recorded as “clear stereospecific kinetics”; in data set [1] (given in a racemic mixture, FIG. 5), “no sterospecifity is observed”.
